Reference: PMC9266368, “Synthesis and Biological Evaluation of Small Molecules as Potential Anticancer Multitarget Agents” (International Journal of Molecular Sciences, 2022)
pIC50: −log10 of the molar value.

Experiments:
[1] = system: A-549 (lung adenocarcinoma); assay: MTT cell viability assay, A-549; assay type: cell-based; details: Homo sapiens, A549, 48 h, 2 days incubation, average ±SD of three experiments
Experimental: (§1) The effects of triazole derivatives 1–26 on the cell viability were determined by MTT assay, and the IC50 values were determined toward the human tumor cell lines HT-29 (colon adenocarcinoma), A-549 (lung adenocarcinoma), and MCF-7 (breast adenocarcinoma), as well as toward the non-tumor cell line HEK-293 (human embryonic kidney cells).
(§2) In 96-well plates, 3 × 10^3 (A549 and HEK-293) or 5 × 10^3 (HT-29, MCF-7) cells per well were incubated with serial dilutions of the tested compounds in a total volume of 100 μL of their growth media. The 3-(4,5-dimethylthiazol-2-yl)-2,5-diphenyltetrazolium bromide (MTT; Sigma Chemical Co.) dye reduction assay in 96-well microplates was used. After 2 days of incubation (37 °C, 5% CO2 in a humid atmosphere), 10 μL of MTT (5 mg/mL in phosphate-buffered saline, PBS) was added to each well, and the plate was incubated for a further 3 h (37 °C). After that, the supernatant was discarded and replaced by 100 µL of DMSO to dissolve formazan crystals. The absorbance was then read at 550 nm by spectro-photometry. For all concentrations of compound, cell viability was expressed as the percentage of the ratio between the mean absorbance of treated cells and the mean absorbance of untreated cells. Three independent experiments were performed, and the IC50 values (i.e., concentration half inhibiting cell proliferation) were graphically determined by using GraphPad Prism 4 software (2019).

[2] = biological target: T1, total PD-L1 (tPD-L1) (Homo sapiens, UniProt Q9NZQ7); assay: Total PD-L1 relative quantification by flow cytometry; assay type: cell-based; details: for tPD-L1 relative detection, A-549 / tPD-L1 relative detection, HT-29 / tPD-L1 relative detection, MCF-7: 24 h, 100 or 10 μM (Table 7), relative to DMSO control
T1 construct: endogenous in cells; host or cells: HT-29, A-549, MCF-7
T1 sequence (Q9NZQ7 19-290): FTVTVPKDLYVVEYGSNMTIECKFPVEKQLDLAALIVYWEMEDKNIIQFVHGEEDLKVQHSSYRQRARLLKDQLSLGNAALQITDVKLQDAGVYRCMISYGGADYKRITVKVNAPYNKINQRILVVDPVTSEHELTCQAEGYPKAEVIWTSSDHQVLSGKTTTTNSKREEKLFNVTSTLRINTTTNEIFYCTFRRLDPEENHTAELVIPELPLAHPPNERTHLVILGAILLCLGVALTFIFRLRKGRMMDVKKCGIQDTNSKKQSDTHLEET
Experimental: (§3) The study was carried out again on HT-29, A-549, and MCF-7 cell lines by flow cytometry after 24 h of treatment with the corresponding compounds. The presence of the targets in the whole cell were relatively determined by using DMSO-treated cells as a negative control and BMS-8 as a positive one for PD-L1 (Table 3).
(§4) To study the effect of the compounds on every biological target in cancer cell lines the compounds were used at a 100 or 10 μM dose, depending on their IC50 and the treated cell line.
(§5) For the assay, 10^5 cells per well were incubated for 24 h with the corresponding dose of the tested compound in a total volume of 500 μL of their growth media.
(§6) For the detection of total PD-L1, VEGFR-2, and c-Myc, the procedure was the same as for membrane targets, but after fixation, a treatment with 0,5% in PBS TritonTM X-100 was performed. The antibodies used for PD-L1 and VEGFR-2 were the ones previously described, and for the detection of c-Myc, it was FITC Rabbit monoclonal anti-c-Myc (ab223913).

[3] = system: c-Myc; assay: c-Myc relative quantification by flow cytometry; assay type: cell-based, human; details: for c-Myc relative detection, A-549 / c-Myc relative detection, HT-29 / c-Myc relative detection, MCF-7: 24 h, 100 or 10 μM (Table 7), relative to DMSO control
Experimental: as §3, §4, §5, §6

[4] = biological target: T2, membrane PD-L1 (mPD-L1) (Homo sapiens, UniProt Q9NZQ7); assay: Membrane PD-L1 relative quantification by flow cytometry; assay type: cell-based; details: for mPD-L1 relative detection, A-549 / mPD-L1 relative detection, HT-29 / mPD-L1 relative detection, MCF-7: 24 h, 100 or 10 μM (Table 7), percentage referred to DMSO control
T2 construct: endogenous in cells; host or cells: HT-29, A-549, MCF-7
T2 sequence (Q9NZQ7 19-290): as above
Experimental: Based on antiproliferative activity of synthetized derivatives, we decided to study the effect of the amino derivatives 14–26 on the expression of both membrane targets PD-L1 and VEGFR-2 (mPD-L1 and mVEGFR-2). The evaluation was performed on three cancer cell lines (HT-29, A-549, and MCF-7) by flow cytometry after 24 h of treatment with the corresponding compounds. Compounds were used at a 100 or 10 μM concentration depending on their IC50 value (see Table 1 in Materials and Methods section). The presence of both targets in the membrane was relatively determined by using DMSO-treated cells as a negative control.
as §4, §5
To detect membrane PD-L1 and VEGFR-2, after the cell treatments, they were collected, fixed with 4% in PBS paraformaldehyde, and stained with FITC Mouse monoclonal Anti-Human VEGFR-2 (ab184903) and Alexa Fluor® 647 Rabbit monoclonal Anti-PD-L1 (ab215251).

[5] = system: HMEC-1 cells; assay: Tube disruption on Matrigel (antivascular activity); assay type: cell-based; details: 100 μM added to 24 h networks, observed after another 24 h
Experimental: The antivascular and antiangiogenic activities of the selected compounds, namely 21, 22, and 23, were settled by 3D Matrigel cell cultures. First, we studied the effect on a microvessel network from HMEC-1 cells. HMEC-1 cells were on Matrigel, and after 24 h, when organized capillary networks were formed, 100 μM of the corresponding compounds, 21–23, was added. After another 24 h, we compared the treated networks with the one that received no treatment (see Figure 5a–c).
Wells of a IBIDI 15-well μ-plate for angiogenesis were coated with 15 μL of Matrigel® (10 mg/mL, BD Biosciences Europe) at 4 °C. After gelatinization at 37 °C for 30 min, HMEC-1 cells were seeded at 2 × 10^4 cells/well in 25 μL of culture medium on top of the Matrigel and were incubated for 30 min at 37 °C while they were attached.
For the tube disruption assay (study of antivascular activity), after 24 h, we checked that the capillary networks were formed on wells, and then 100 μM of compounds was added. After 24 h of treatment, the cultures were observed again, and pictures of each well were taken.

[6] = system: HT-29 (colon adenocarcinoma); assay: MTT cell viability assay, HT-29; assay type: cell-based; details: Homo sapiens, HT-29, 48 h, 2 days incubation, average ±SD of three experiments
Experimental: as §1, §2

[7] = biological target: T3, PD-L1 (Homo sapiens, UniProt Q9NZQ7); assay: Protein thermal shift (PTS) assay; assay type: binding; details: for PTS Tm: PD-L1 melting temperature, DMSO 34 °C; for PTS ΔTm: shift of PD-L1 melting temperature vs DMSO
T3 construct: purchased ab167713
T3 sequence (Q9NZQ7 19-290): as above
Text: This assay measures the melting point (Tm) of the target protein which is a proxy of its stability that can be altered by the binding of a ligand. A change in the melting point relative to the unliganded form implies that a ligand has bound itself to the targeted protein. According to the fundamentals of this technique, an increase in Tm means that the binding of the ligand leads to a stabilization of the target protein, while a decrease in Tm is probably due to the fact that the binding between the ligand and its target leads to a destabilization of the protein. In this case, the tested compounds were able to change the PD-L1 melting temperature.
PTS assay was performed by following the instructions indicated in Protein Thermal ShiftTM Dye Kit (Applied Biosystems reference 4461146), using 2 μL of a 0.1 mg/mL of an aqueous solution of PD-L1 (reference ab167713) and 1.5 μL of a 0.1 mg/mL aqueous solution of the corresponding product. The melting curves were registered by a StepOneTM Real-Time PCR System.

[8] = HT-29, compared to non-treated cells

Compound | pIC50 [1] | melting point [°C] | tPD-L1 relative detection, A-549 [2] [%] | tPD-L1 relative detection, HT-29 [2] [%] | Inhibition of total PD-L1, MCF-7 [2] | tPD-L1 relative detection, MCF-7 [2] [%] | c-Myc relative detection, A-549 [3] [%] | c-Myc relative detection, HT-29 ([3]; HT-29) [%] | c-Myc relative detection, MCF-7 [3] [%] | mPD-L1 relative detection, A-549 [4] [%] | mPD-L1 relative detection, HT-29 ([4]; HT-29) [%] | mPD-L1 relative detection, MCF-7 [4] [%] | Antivascular effect on formed HMEC-1 capillary networks [5] | pIC50 [6] | PTS Tm [7] [°C] | PTS ΔTm [7] [°C] | Inhibition of c-Myc, HT-29 [3, 8] [%] | Reduction/inhibition of membrane PD-L1, HT-29 [4, 8]
Nc1ccc(-c2cn(Cc3cccc(Cl)c3)nn2)cc1 [Compound 22, 4-(1-(3-chlorobenzyl)-1H-1,2,3-triazol-4-yl)aniline] | < 4.00 | 143 to 144 | 75 ± 10 | 52 ± 7 | around 40% | 69 ± 7 | >100 | >100 | 59 ± 5 | 82 ± 18 | 27 ± 5 | 90 ± 2 | disturbance of the formed microvasculature-like network | < 4.00 | 26 | −8 |  | 
Nc1ccc(-c2cn(Cc3ccc(Cl)cc3)nn2)cc1 [Compound 23, 4-(1-(4-chlorobenzyl)-1H-1,2,3-triazol-4-yl)aniline] | < 4.00 | 164 to 166 | 81 ± 15 | 52 ± 3 | around 40% | 61 ± 14 | >100 | 84 ± 5 | 51 ± 8 | >100 | 38 ± 5 | 86 ± 3 | disturbance of the formed microvasculature-like network | < 4.00 | 29 | −5 | 20 | around 70%
Nc1ccc(-c2cn(Cc3ccccc3Cl)nn2)cc1 [Compound 21, 4-(1-(2-chlorobenzyl)-1H-1,2,3-triazol-4-yl)aniline] | < 4.00 | 112 to 115 | 78 ± 9 | 60 ± 6 |  | >100 | >100 | >100 | 59 ± 6 | 95 ± 5 |  | 83 ± 7 | disturbance of the formed microvasculature-like network | < 4.00 | 30 | −4 |  | 
